# Read-outs that look alike come from different tables or passages of the source. Starred links: 1 amine or outer side, 2 acyl side, 3 side chain; linkers in the order of their positions; H or OH if unused. Positions of bridges follow the written chain, without caps; N, C: chain ends. Non-standard residues stand in square brackets, D forms with d. Residues, ends and D or L forms follow the SMILES beside them. *: point of attachment. X3 = CN(CCCCC(=O)N[C@@H](CS[*:2])C(=O)[*:1])[*:3]; Trp(7-Me) = Cc1cccc2c(C[C@H](N)C(=O)O)c[nH]c12; X1 = O=C(CCCCN[*:3])N[C@@H](CS[*:2])C(=O)[*:1]; αMeLys(Me2) = CN(C)CCCC[C@](C)(N)C(=O)O; X2 = CN(C)[C@@H](CCCCN[*:1])C(=O)[*:2]; 2Nal = N[C@@H](Cc1ccc2ccccc2c1)C(=O)O; AEF = NCCOc1ccc(C[C@H](N)C(=O)O)cc1; 3Pal = N[C@@H](Cc1cccnc1)C(=O)O; αMeL = CC(C)C[C@](C)(N)C(=O)O; Thp = NC1(C(=O)O)CCOCC1; Me2NCH2CH2 = CN(C)CC*; Aib = CC(C)(N)C(=O)O; Ava = NCCCCC(=O)O; βAla = NCCC(=O)O; Sar = CNCC(=O)O
# What was measured:
# [1] = molecular target: T1, human interleukin-23 receptor (recombinant human IL-23R-Fc chimera) (Homo sapiens, UniProt Q5VWK5); assay: Human ELISA IL23/IL23R (assay for specific human IL23R antagonists); format: binding; details: Table 10; read-out: Human ELISA IL23/IL23R IC50
# T1 construct: Fc (IgG Fc fusion)
# Method in brief: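 Competition format: peptide dilutions compete for IL23R-Fc chimera (0.1 μg/ml final, 60 min, room temperature) binding to immobilized human IL23 coated at […] overnight at 4 °C. Read-out is fluorogenic HRP signal from goat anti-hu-IgG1 detecting captured receptor.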
# [2] = test system: IL-23 induced STAT3 signaling in HEK-Blue™ IL-23 cells; assay: IL-23 induced STAT3 signaling in HEK-Blue IL-23 cells (SEAP reporter); format: cell-based; details: human IL23 0.25 ng/ml, read-out: pSTAT3
# Method in brief: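 Secreted SEAP, read at OD 620-655 nm after 45 min QUANTI-Blue development, reports STAT3 activation. Beforehand, cells were exposed to peptide dilutions for 60 min at 37 °C and then to 0.25 ng/ml final human IL-23 overnight, at 10,000 cells/well.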
# [3] = Solubility testing of peptides at different pH; format: physicochemical; details: target concentration 1 mg/ml, 2 hours agitation
# Method in brief: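 Four buffers were used: 50 mM HCl pH 1.2 and 50 mM phosphate at pH 6.5, 7.4 and 9.0, each receiving dried-down compound at a 1 mg/mL target. After 2 h gentle shaking and 0.45 μm filtration, UV peak areas were compared with a DMSO standard curve of known concentration, allowing for extinction coefficients.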
# [4] = Chemical stability assessment of peptides (relative purity loss); format: physicochemical; details: 24 hours at 37° C.; for Chemical stability (relative purity loss) Buffer pH 1.2: 50 mM HCl pH 1.2 + acetonitrile (1:1); for Chemical stability (relative purity loss) Buffer pH 6.5: 50 mM phosphate buffer pH 6.5 + acetonitrile (1:1); for Chemical stability (relative purity loss) Buffer pH 7.4: 50 mM phosphate buffer pH 7.4 + acetonitrile (1:1)
# Method in brief: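 Peptide solutions at 1 mg/ml (purity-corrected) in 1:1 acetonitrile with 50 mM HCl pH 1.2, or 50 mM phosphate pH 6.5 or pH 7.4, held 24 hours at 2° C. and 37° C. Supernatants analysed by UHPLC-UV; relative purity loss taken as percent drop in peak-area purity from 0 to 24 hours at 37° C.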
# Pepsin = test system: T2, Pepsin; assay: Protease stability in simulated gastric fluid (Pepsin-SGF, FaSSGF); format: in vitro ADME; details: simulated gastric fluid with pepsin (Pepsin-SGF), 60 min, 1 μM peptide, 37° C., read-out: FaSSGF 60 (min), remaining percent of peptide
# T2 construct: purchased Merck Millipore
# Method in brief: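 LCMS/MS peak areas, normalised to the time-0 sample as 100%, give percent remaining. Conditions: 37° C incubation of 1 μM final peptide in simulated gastric fluid with pepsin; ethanol/0.1% HCOOH quench at 0, 60, 120, 240 min.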
# [5] = 50 mM HCl buffer, 50 mM HCl pH 1.2, read-out: Solubility Buffer pH 1.2
# [6] = 50 mM phosphate buffer pH 6.5, read-out: Solubility Buffer pH 6.5
# [7] = 50 mM phosphate buffer pH 7.4, read-out: Solubility Buffer pH 7.4
# [8] = 50 mM phosphate buffer pH 9.0, read-out: Solubility Buffer pH 9.0
SMILES,IC50 [1] [nM],"solubility at 2 h [3, 5] [µg/mL]","solubility at 2 h [3, 6] [µg/mL]","solubility at 2 h [3, 7] [µg/mL]","solubility at 2 h [3, 8] [µg/mL]",Chemical stability (relative purity loss) Buffer pH 1.2 [4] [%],Chemical stability (relative purity loss) Buffer pH 6.5 [4] [%],Chemical stability (relative purity loss) Buffer pH 7.4 [4] [%],"remaining at 1 h, 1 µM (Pepsin) [%]",IC50 [2] [nM]
CC(=O)N[C@H]1CCCCNC(=O)[C@@H]2CSSC[C@H](NC(=O)[C@H](CCC(N)=O)NC(=O)[C@H](Cc3c[nH]c4ccccc34)NC1=O)C(=O)N[C@@H](Cc1ccc(OCCN)cc1)C(=O)N[C@@H](Cc1ccc3ccccc3c1)C(=O)N[C@@](C)(CC(C)C)C(=O)N[C@H](C(=O)N[C@@H](CC(N)=O)C(=O)N[C@@H](CC(N)=O)C(N)=O)CCC(=O)N(C)CCCCC(=O)N2 [compound 14] (Ac-KWQC[AEF][2Nal][αMeL]ENN-NH2; linker 1-4-8 via X3),0.36,50,30,20,< 10,25.8,0.6,0.1,72,18.7
Cc1cccc2c(C[C@@H]3NC(=O)[C@H]([C@@H](C)O)NC(=O)[C@H](CC(N)=O)NC(=O)[C@@H]4CSSC[C@H](NC(=O)[C@H](CC(C)C)NC3=O)C(=O)N[C@@H](Cc3ccc(OCCN(C)C)cc3)C(=O)N[C@@H](Cc3ccc5ccccc5c3)C(=O)NC3(CCOCC3)C(=O)N[C@H](C(=O)N[C@@H](CC(N)=O)C(=O)N[C@@H](Cc3cccnc3)C(=O)N(C)CC(N)=O)CCC(=O)NCCCCC(=O)N4)c[nH]c12 [compound 24] ([Ava]CNT[Trp(7-Me)]LCY(Me2NCH2CH2)[2Nal][Thp]EN[3Pal][Sar]-NH2; disulfide 2-7; lactam N-11),0.4,≥ 1020,≥ 1100,≥ 1000,300,7.2,0.0,0.4,84,0.59
CC(=O)N[C@H]1CCCCNC(=O)[C@@H]2CSSC[C@H](NC(=O)[C@H](CCC(N)=O)NC(=O)[C@H](Cc3c[nH]c4ccccc34)NC1=O)C(=O)N[C@@H](Cc1ccc(OCCN(C)C)cc1)C(=O)N[C@@H](Cc1ccc3ccccc3c1)C(=O)NC(C)(C)C(=O)N[C@H](C(=O)N[C@@H](C)C(=O)NCC(N)=O)CCC(=O)NCCCCC(=O)N2 [compound 32] (Ac-KWQCY(Me2NCH2CH2)[2Nal][Aib]EAG-NH2; linker 1-4-8 via X1),0.48,740,≥ 880,≥ 870,170,10.5,0.0,1.0,78,20.5
COc1ccc(C[C@@H]2NC(=O)[C@@H]3CSSC[C@H](NC(=O)CCC(=O)NCCCC[C@@H](C(=O)N[C@@H](CC(N)=O)C(=O)N[C@@H](CC(N)=O)C(N)=O)NC(=O)C(C)(C)NC(=O)[C@H](Cc4ccc5ccccc5c4)NC2=O)C(=O)N[C@@H](CC(N)=O)C(=O)N[C@@H]([C@@H](C)O)C(=O)N[C@@H](Cc2c[nH]c4ccccc24)C(=O)N[C@@H](CCC(N)=O)C(=O)N3)cc1 [compound 11],0.7,120,100,90,80,25.7,0.2,1.0,2,53.5

# The next lines start with results.
IC50 [1] [nM],"solubility at 2 h [3, 5] [µg/mL]","solubility at 2 h [3, 6] [µg/mL]","solubility at 2 h [3, 7] [µg/mL]","solubility at 2 h [3, 8] [µg/mL]",Chemical stability (relative purity loss) Buffer pH 1.2 [4] [%],Chemical stability (relative purity loss) Buffer pH 6.5 [4] [%],Chemical stability (relative purity loss) Buffer pH 7.4 [4] [%],"remaining at 1 h, 1 µM (Pepsin) [%]",SMILES,IC50 [2] [nM]
0.29,≥ 1000,≥ 980,670,440,13.0,0.7,1.5,99,CC(=O)NCCCC[C@@H]1NC(=O)[C@H](Cc2c[nH]c3c(C)cccc23)NC(=O)[C@H]([C@@H](C)O)NC(=O)[C@H](CC(N)=O)NC(=O)[C@@H]2CSSC[C@H](NC1=O)C(=O)N[C@@H](Cc1ccc(OCCN(C)C)cc1)C(=O)N[C@@H](Cc1ccc3ccccc3c1)C(=O)N[C@@](C)(CC(C)C)C(=O)N[C@H](C(=O)N[C@@H](CC(N)=O)C(=O)N[C@@H](Cc1c[nH]cn1)C(=O)NCCC(N)=O)CCC(=O)NCCCCC(=O)N2 [compound 50] ([Ava]CNT[Trp(7-Me)]K(Ac)CY(Me2NCH2CH2)[2Nal][αMeL]ENH[βAla]-NH2; disulfide 2-7; lactam N-11),0.98
0.56,≥ 1000,≥ 890,640,130,5.9,0.5,0.1,100,CC(=O)N[C@H]1CCCCNC(=O)[C@@H]2CSSC[C@H](NC(=O)[C@H](CCC(N)=O)NC(=O)[C@H](Cc3c[nH]c4ccccc34)NC1=O)C(=O)N[C@@H](Cc1ccc(OCCN(C)C)cc1)C(=O)N[C@@H](Cc1ccc3ccccc3c1)C(=O)NC1(CCOCC1)C(=O)N[C@H](C(=O)N[C@@H](C)C(=O)N[C@H](CC(C)C)C(N)=O)CCC(=O)NCCCCC(=O)N2 [compound 33] (Ac-KWQCY(Me2NCH2CH2)[2Nal][Thp]EA[dL]-NH2; linker 1-4-8 via X1),53.8
0.28,≥ 1060,≥ 1040,≥ 990,≥ 1040,12.5,1.3,2.8,100,CC(=O)NCCCC[C@@H]1NC(=O)[C@H](Cc2c[nH]c3c(C)cccc23)NC(=O)[C@H]([C@@H](C)O)NC(=O)[C@H](CC(N)=O)NC(=O)[C@@H]2CSSC[C@H](NC1=O)C(=O)N[C@@H](Cc1ccc(OCCN(C)C)cc1)C(=O)N[C@@H](Cc1ccc3ccccc3c1)C(=O)NC(C)(C)C(=O)N[C@H](C(=O)N[C@@H](CC(N)=O)C(=O)N[C@@H](Cc1c[nH]cn1)C(=O)NCCC(N)=O)CCC(=O)NCCCCC(=O)N2 [compound 48] ([Ava]CNT[Trp(7-Me)]K(Ac)CY(Me2NCH2CH2)[2Nal][Aib]ENH[βAla]-NH2; disulfide 2-7; lactam N-11),0.6
0.5,≥ 1010,≥ 1100,≥ 1080,≥ 1150,2.6,1.1,0.9,95,CC(=O)NCCCC[C@@H]1NC(=O)[C@H](Cc2c[nH]c3ccccc23)NC(=O)[C@@H](N(C)C)CCCCNC(=O)[C@@H]2CSSC[C@H](NC1=O)C(=O)N[C@@H](Cc1ccc(OCCN(C)C)cc1)C(=O)N[C@@H](Cc1ccc3ccccc3c1)C(=O)N[C@@](C)(CCCCN(C)C)C(=O)N[C@H](C(=O)N[C@@H](CC(N)=O)C(=O)N[C@@H](Cc1cccnc1)C(=O)N(C)CC(N)=O)CCC(=O)NCCCCC(=O)N2 [compound 36] ([Ava]C[X2]WK(Ac)CY(Me2NCH2CH2)[2Nal][αMeLys(Me2)]EN[3Pal][Sar]-NH2; disulfide 2-6; lactam N-10),13.9

# Source: patent US20260258084A1, “New Peptides as Selective IL-23 Receptor Antagonists” (Sanofi, priority 2022, published 2026)
